For this test, the target named is T1, human PAR4 (Homo sapiens, UniProt Q96RI0).
T1 construct: expressed in transfected cells; host or cells: HEK293 PAR4 Clone 1.2A (BMS Arctic ID 383940)
T1 sequence (Q96RI0 18-385): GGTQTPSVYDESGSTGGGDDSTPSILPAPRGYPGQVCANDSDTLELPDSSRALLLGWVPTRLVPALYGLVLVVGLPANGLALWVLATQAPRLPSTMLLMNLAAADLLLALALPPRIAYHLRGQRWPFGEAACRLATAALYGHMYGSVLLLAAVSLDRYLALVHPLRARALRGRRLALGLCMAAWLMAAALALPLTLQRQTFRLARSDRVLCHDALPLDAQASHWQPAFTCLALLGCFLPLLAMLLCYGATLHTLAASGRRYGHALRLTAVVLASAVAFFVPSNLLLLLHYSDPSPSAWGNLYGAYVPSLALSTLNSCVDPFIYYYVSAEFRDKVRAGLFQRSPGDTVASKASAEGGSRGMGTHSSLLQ
Kind of test: PAR4 FLIPR assay: antagonism of agonist-peptide-induced calcium mobilization in PAR4-expressing HEK293 cells. The test is classed as cell-based. The settings on record: H-Ala-Phe(4-F)-[…]NH2-induced intracellular calcium mobilization, 11-point curves.

As for `COc1cc(C(O)C2(c3ccccc3)CCC2)c2nc(-c3cc(C)cc4nc(OC)cnc34)sc2c1` (stereo not shown) [Example 665, (6-methoxy-2-(2-methoxy-7-methylquinoxalin-5-yl)benzo[d]thiazol-4-yl)(1-phenylcyclobutyl)methanol], the IC50 amounted to 1.7 nM.
`COc1cc(C(O)C2(OC)CCC2)c2nc(-c3cc(C)cc4nc(OC)cnc34)sc2c1` (stereo not shown) [Example 666, (6-methoxy-2-(2-methoxy-7-methylquinoxalin-5-yl)benzo[d]thiazol-4-yl)(1-methoxycyclobutyl)methanol]: the IC50 was found to be 1.1 nM.
Regarding `COc1cc(C(O)C2(C(F)(F)F)CC2)c2nc(-c3cc(C)cc4nc(OC)cnc34)sc2c1` (stereo not shown) [Example 667, (6-methoxy-2-(2-methoxy-7-methylquinoxalin-5-yl)benzo[d]thiazol-4-yl)(1-(trifluoromethyl)cyclopropyl)methanol], the IC50 came out at 5.6 nM.
Consider `COc1cc(C(O)C2(c3ccccc3)CC2)c2nc(-c3cc(C)cc4nc(OC)cnc34)sc2c1` (stereo not shown) [Example 668, (6-methoxy-2-(2-methoxy-7-methylquinoxalin-5-yl)benzo[d]thiazol-4-yl)(1-phenylcyclopropyl)methanol], for which the IC50 came out at 7.3 nM.
For the compound `COc1cc(C(O)C2(C(F)(F)F)CCC2)c2nc(-c3cc(C)cc4nc(OC)cnc34)sc2c1` (stereo not shown) [Example 669], the IC50 amounted to 2.3 nM.
As for `COc1cc(C(O)C2(C)CC2)c2nc(-c3cc(C)cc4nc(OC)cnc34)sc2c1` (stereo not shown) [Example 671, (6-methoxy-2-(2-methoxy-7-methylquinoxalin-5-yl)benzo[d]thiazol-4-yl)(1-methylcyclopropyl)methanol], the IC50 was found to be 1.9 nM.
Take `COc1cc(C(O)C2(C)CCCCC2)c2nc(-c3cc(C)cc4nc(OC)cnc34)sc2c1` (stereo not shown) [Example 672, (6-methoxy-2-(2-methoxy-7-methylquinoxalin-5-yl)benzo[d]thiazol-4-yl)(1-methylcyclohexyl)methanol]: the IC50 was 1.9 nM.
Turning to `COc1cc(C(O)c2nccs2)c2nc(-c3cc(C)cc4nc(OC)cnc34)sc2c1` (stereo not shown) [Example 673, (6-methoxy-2-(2-methoxy-7-methylquinoxalin-5-yl)benzo[d]thiazol-4-yl)(thiazol-2-yl)methanol], the IC50 is 39 nM.
For the compound `COc1cc(C(O)C2(C)CCOCC2)c2nc(-c3cc(C)cc4nc(OC)cnc34)sc2c1` (stereo not shown) [Example 674, (6-methoxy-2-(2-methoxy-7-methylquinoxalin-5-yl)benzo[d]thiazol-4-yl)(4-methyltetrahydro-2H-pyran-4-yl)methanol], the IC50 is 20 nM.
As to `COc1cc(F)cc(C(O)c2cc(OC)cc3sc(-c4cc(C)cc5nc(OC)cnc45)nc23)c1` (stereo not shown) [Example 675, (3-fluoro-5-methoxyphenyl)(6-methoxy-2-(2-methoxy-7-methylquinoxalin-5-yl)benzo[d]thiazol-4-yl)methanol], the IC50 turned out to be 10 nM.
The result for `COc1cc(C(O)C2(C)CCCCC2)c2nc(-c3cc(C)cc4nc(OC)cnc34)sc2c1` (stereo not shown) [Example 676, (6-methoxy-2-(2-methoxy-7-methylquinoxalin-5-yl)benzo[d]thiazol-4-yl)(1-methylcyclohexyl)methanol] reads 3.2 nM.
On to `COc1cc(C(C)O)c2nc(-c3cc(C)cc4nc(OC)cnc34)sc2c1` (stereo not shown) [Example 677, 1-(6-methoxy-2-(2-methoxy-7-methylquinoxalin-5-yl)benzo[d]thiazol-4-yl)ethan-1-ol], for which the IC50 came out at 3.8 nM.
Then `COc1cnc2c(-c3nc4cc(F)c(OC[C@@H](C)OC(=O)Nc5cnc(C)nc5)nc4s3)cc(C)cc2n1` [Example 678, (R)-1-((6-fluoro-2-(2-methoxy-7-methylquinoxalin-5-yl)thiazolo[5,4-b]pyridin-5-yl)oxy)propan-2-yl (2-methylpyrimidin-5-yl)carbamate], with 1 nM; and `COc1cnc2c(-c3nc4cc(F)c(OC[C@@H](C)OC(=O)Nc5cnc(OC)nc5)nc4s3)cc(C)cc2n1` [Example 679, (R)-1-((6-fluoro-2-(2-methoxy-7-methylquinoxalin-5-yl)thiazolo[5,4-b]pyridin-5-yl)oxy) propan-2-yl (2-methoxypyrimidin-5-yl)carbamate], with 2.5 nM.
`COc1cnc2c(-c3nc4cc(F)c(OC[C@@H](C)OC(=O)Nc5ccncc5)nc4s3)cc(C)cc2n1` [Example 680, (R)-1-((6-fluoro-2-(2-methoxy-7-methylquinoxalin-5-yl)thiazolo[5,4-b]pyridin-5-yl)oxy) propan-2-yl pyridin-4-ylcarbamate]: the IC50 turned out to be 0.8 nM.
`COc1cnc2c(-c3nc4cc(F)c(OC[C@@H](C)OC(=O)Nc5ccc(C)nc5)nc4s3)cc(C)cc2n1` [Example 681, (R)-1-((6-fluoro-2-(2-methoxy-7-methylquinoxalin-5-yl)thiazolo[5,4-b]pyridin-5-yl)oxy) propan-2-yl (6-methylpyridin-3-yl)carbamate]: the IC50 is 0.4 nM.
As to `COc1cnc2c(-c3nc4cc(F)c(OC[C@@H](C)OC(=O)Nc5cncc(F)c5)nc4s3)cc(C)cc2n1` [Example 682, (R)-1-((6-fluoro-2-(2-methoxy-7-methylquinoxalin-5-yl)thiazolo[5,4-b]pyridin-5-yl)oxy) propan-2-yl (5-fluoropyridin-3-yl)carbamate], the IC50 amounted to 0.9 nM.
As to `COc1cnc2c(-c3nc4cc(F)c(OC[C@@H](C)OC(=O)Nc5ccc6[nH]c(=O)oc6c5)nc4s3)cc(C)cc2n1` [Example 683, (R)-1-((6-fluoro-2-(2-methoxy-7-methylquinoxalin-5-yl)thiazolo[5,4-b]pyridin-5-yl)oxy) propan-2-yl (2-oxo-2,3-dihydrobenzo[d]oxazol-6-yl)carbamate], the IC50 came out at 0.7 nM.
On to `COc1cnc2c(-c3nc4cc(F)c(OC[C@@H](C)OC(=O)Nc5cccnc5)nc4s3)cc(C)cc2n1` [Example 684, (R)-1-((6-fluoro-2-(2-methoxy-7-methylquinoxalin-5-yl)thiazolo[5,4-b]pyridin-5-yl)oxy) propan-2-yl pyridin-3-ylcarbamate], for which the IC50 amounted to 0.7 nM.
`COc1cnc2c(-c3nc4cc(F)c(OC[C@@H](C)OC(=O)Nc5cnc(OCCO)nc5)nc4s3)cc(C)cc2n1` [Example 685, (R)-1-((6-fluoro-2-(2-methoxy-7-methylquinoxalin-5-yl)thiazolo[5,4-b]pyridin-5-yl)oxy) propan-2-yl (2-(2-hydroxyethoxy)pyrimidin-5-yl)carbamate]: the IC50 came out at 1.7 nM.
The result for `COc1cnc2c(-c3nc4cc(F)c(OC[C@@H](C)OC(=O)Nc5ccc(OCC(F)(F)CO)nc5)nc4s3)cc(C)cc2n1` [Example 687, (R)-1-((6-fluoro-2-(2-methoxy-7-methylquinoxalin-5-yl)thiazolo[5,4-b]pyridin-5-yl)oxy) propan-2-yl (6-(2,2-difluoro-3-hydroxypropoxy)pyridin-3-yl)carbamate] reads 0.9 nM.
As to `COc1cnc2c(-c3nc4cc(F)c(OC[C@@H](C)OC(=O)Nc5cnc(OC[C@@H](C)O)nc5)nc4s3)cc(C)cc2n1` [Example 688, (R)-1-((6-fluoro-2-(2-methoxy-7-methylquinoxalin-5-yl)thiazolo[5,4-b]pyridin-5-yl)oxy) propan-2-yl (2-((R)-2-hydroxypropoxy)pyrimidin-5-yl)carbamate], the IC50 was determined as 4.5 nM.
For `COC(=O)c1ncc(NC(=O)O[C@H](C)COc2nc3sc(-c4cc(C)cc5nc(OC)cnc45)nc3cc2F)cn1` [Example 689, methyl (R)-5-((((1-((6-fluoro-2-(2-methoxy-7-methylquinoxalin-5-yl)thiazolo[5,4-b]pyridin-5-yl)oxy)propan-2-yl)oxy)carbonyl)amino)pyrimidine-2-carboxylate], the IC50 came out at 0.3 nM.
With `COC(=O)c1ccc(NC(=O)O[C@H](C)COc2nc3sc(-c4cc(C)cc5nc(OC)cnc45)nc3cc2F)cn1` [Example 690, methyl (R)-5-((((1-((6-fluoro-2-(2-methoxy-7-methylquinoxalin-5-yl)thiazolo[5,4-b]pyridin-5-yl)oxy)propan-2-yl)oxy)carbonyl)amino)picolinate], the IC50 amounted to 0.3 nM.
Take `COc1cnc2c(-c3nc4cc(F)c(OC[C@@H](C)OC(=O)Nc5ccc(CCO)nc5)nc4s3)cc(C)cc2n1` [Example 691, (R)-1-((6-fluoro-2-(2-methoxy-7-methylquinoxalin-5-yl)thiazolo[5,4-b]pyridin-5-yl)oxy) propan-2-yl (6-(2-hydroxyethyl)pyridin-3-yl)carbamate]: the IC50 worked out at 0.9 nM.
Regarding `COc1cnc2c(-c3nc4cc(F)c(OC[C@@H](C)OC(=O)Nc5cnc(O[C@H](C)CO)nc5)nc4s3)cc(C)cc2n1` [Example 692, (R)-1-((6-fluoro-2-(2-methoxy-7-methylquinoxalin-5-yl)thiazolo[5,4-b]pyridin-5-yl)oxy) propan-2-yl (2-(((R)-1-hydroxypropan-2-yl)oxy)pyrimidin-5-yl)carbamate], the IC50 came out at 1.8 nM.
On to `COc1cnc2c(-c3nc4cc(F)c(OC[C@@H](C)OC(=O)Nc5cnc(O[C@@H](C)CO)nc5)nc4s3)cc(C)cc2n1` [Example 693, (R)-1-((6-fluoro-2-(2-methoxy-7-methylquinoxalin-5-yl)thiazolo[5,4-b]pyridin-5-yl)oxy) propan-2-yl (2-(((S)-1-hydroxypropan-2-yl)oxy)pyrimidin-5-yl)carbamate], for which the IC50 was 1.3 nM.
As to `COc1cnc2c(-c3nc4cc(F)c(OC[C@@H](C)OC(=O)Nc5ccc(CO)nc5)nc4s3)cc(C)cc2n1` [Example 694, (R)-1-((6-fluoro-2-(2-methoxy-7-methylquinoxalin-5-yl)thiazolo[5,4-b]pyridin-5-yl)oxy) propan-2-yl (6-(hydroxymethyl)pyridin-3-yl)carbamate], the IC50 was 2.1 nM.

The values are drawn from patent publication US12060347B2 (BRISTOL-MYERS SQUIBB COMPANY, priority 2016, dated 2024).
